Test results published in ChEMBL document CHEMBL5038635, “Discovery of Salidroside-Derivated Glycoside Analogues as Novel Angiogenesis Agents to Treat Diabetic Hind Limb Ischemia” (J Med Chem, 2022).
Values after ≈ are worked out from the molar mass of the structure shown. Active and inactive are the calls of the source. No cut-off for these calls is given here.

Legend:
Mus musculus [1] = test: Antidiabetic activity in diabetic HLI C57BL/6 mouse model assessed as increase in blood perfusion recovery at 100 mg/kg administered intramuscularly; format: functional, organism-based
Mus musculus [2] = test: Angiogenesis activity in diabetic HLI C57BL/6 mouse model assessed as VEGF-A protein expression at 100 mg/kg, im administered for 21 days followed by surgery by Western blot analysis; format: functional, organism-based; conditions: time 21.0 day
[3] = Efflux ratio of Apparent permeability across basolateral to apical side over apical to basolateral side in human Caco-2 cells
[4] = Dissociation constant, pKa of compound by UV-visible spectrometric method; format: physicochemical
[5] = Protein binding in human plasma by balanced dialysis method; format: ADME, cell-free; conditions: read-out: PPB (converted)
MOVAS-1 [6] = test: Induction proliferation of mouse MOVAS-1 assessed as increase in number of EdU-positive cells using conditioned medium of mouse C2C12 cells with silenced HIF-1alpha treated at 30 uM under hyperglycemic condition for 12 hrs followed by hypoxia for 24 hrs by EdU-incorporation assay; format: functional, cell-based; conditions: time 36.0 hrs
MOVAS-1 [7] = test: Angiogenic activity in mouse MOVAS-1 cells assessed as suppression of F-actin polymerization at 30 uM using conditioned medium of mouse C2C12 cells treated at 30 uM under hyperglycemic condition for 12 hrs followed by hypoxia for 12 hrs by phalloidin staining based confocal microscopy; format: functional, cell-based; conditions: time 24.0 hrs
Mus musculus [8] = test: Angiogenesis activity in diabetic HLI C57BL/6 mouse model assessed as HIF-1alpha protein expression at 100 mg/kg, im administered for 21 days followed by surgery by Western blot analysis; format: functional, organism-based; conditions: time 21.0 day
HUVEC [9] = test: Angiogenic activity in human HUVEC cells assessed as suppression of F-actin polymerization at 30 uM using conditioned medium of mouse C2C12 cells treated at 30 uM under hyperglycemic condition for 12 hrs followed by hypoxia for 12 hrs by phalloidin staining based confocal microscopy; format: functional, cell-based; conditions: time 24.0 hrs
MOVAS-1 [10] = test: Angiogenesis activity in mouse MOVAS-1 cells assessed as suppression of cell migration using conditioned medium of mouse C2C12 cells treated at 30 uM under hyperglycemic condition for 12 hrs followed by hypoxia for 24 hrs by crystal violet dye based transwell assay; format: functional; conditions: time 36.0 hrs
C2C12 [11] = test: Induction of cell migration in mouse C2C12 cells at 30 uM under hyperglycemic condition incubated for 24 hrs by crystal violet dye based transwell chamber assay; format: functional
[12] = Stability in rat plasma assessed as compound remaining at 6.25 to 25 mg/L after 12 hrs by HPLC analysis; format: ADME, cell-free; conditions: at 6.25 to 25 µg/mL, dose 6.25-25 mg/L, read-out: Stability
[13] = Octanol/Water partition coefficient, log P of the compound by HPLC-UV analysis
C2C12 [14] = test: Induction of F-actin polymerization in mouse C2C12 cells at 30 uM pretreated with compound for 12 hr followed by hypoxic condition for 24 hrs by phalloidin staining based confocal microscopy; format: functional, cell-based; conditions: time 36.0 hrs
HUVEC [15] = test: Induction proliferation of human HUVEC cells assessed as increase in number of EdU-positive cells using conditioned medium of mouse C2C12 cells treated at 30 uM under hyperglycemic condition for 12 hrs followed by hypoxia for 24 hrs by EdU-incorporation assay; format: functional; conditions: time 36.0 hrs
HUVEC [16] = test: Induction proliferation of human HUVEC cells assessed as increase in number of EdU-positive cells using conditioned medium of mouse C2C12 cells with silenced HIF-1alpha treated at 30 uM under hyperglycemic condition for 12 hrs followed by hypoxia for 24 hrs by EdU-incorporation assay; format: functional, cell-based; conditions: time 36.0 hrs
C2C12 [17] = test: Reversal of hyperglycemia-induced VEGF-A protein level reduction in mouse C2C12 cells measured at 30 uM by Western blot analysis; format: functional, cell-based
[18] = Microsomal stability in rat liver microsomes assessed as compound remaining after 30 min by HPLC analysis; format: ADME, Microsome; conditions: read-out: Stability
C2C12 [19] = test: Reversal of hyperglycemia-induced PDGF-BB protein level reduction in mouse C2C12 cells measured at 30 uM by ELISA; format: functional, cell-based
Mus musculus [20] = test: Antidiabetic activity in diabetic HLI C57BL/6 mouse model assessed as effect on blood glucose level at 15 mg/kg administered intramuscular; format: functional, organism-based
[21] = Permeability coefficient across apical to basolateral side in human Caco-2 cells by HPLC-UV analysis
C2C12 [22] = test: Reversal of hyperglycemia-induced PDGF-BB protein level reduction in mouse C2C12 cells measured at 30 uM by Western blot analysis; format: functional, cell-based
[23] = Permeability coefficient across basolateral to apical side in human Caco-2 cells by HPLC-UV analysis
[24] = Metabolic stability in rat leg muscle homogenates assessed as compound remaining after 30 min by HPLC analysis; format: ADME, tissue-based, muscle of leg; conditions: read-out: Stability
MOVAS-1 [25] = test: Induction proliferation of mouse MOVAS-1 cells assessed as increase in number of EdU-positive cells using conditioned medium of mouse C2C12 cells treated at 30 uM under hyperglycemic condition for 12 hrs followed by hypoxia for 24 hrs by EdU-incorporation assay; format: functional; conditions: time 36.0 hrs
HUVEC [26] = test: Angiogenesis activity in human HUVEC cells assessed as suppression of cell migration using conditioned medium of mouse C2C12 cells treated at 30 uM under hyperglycemic condition for 12 hrs followed by hypoxia for 24 hrs by crystal violet dye based transwell assay; format: functional; conditions: time 36.0 hrs
C2C12 [27] = test: Reversal of hyperglycemia-induced VEGF-A protein level reduction in mouse C2C12 cells measured at 30 uM by ELISA; format: functional, cell-based
MOVAS-1 [28] = test: Angiogenesis activity in mouse MOVAS-1 assessed as increase of cell migration using conditioned medium of mouse C2C12 cells with silenced HIF-1alpha treated at 30 uM under hyperglycemic condition for 12 hrs followed by hypoxia for 24 hrs by crystal violet dye based transwell assay; format: functional; conditions: time 36.0 hrs
Mus musculus [29] = test: Antidiabetic activity in diabetic HLI C57BL/6 mouse model assessed as morphological changes at 100 mg/kg administered intramuscularly; format: functional, organism-based
[30] = Water solubility of the compound by HPLC analysis
Mus musculus [31] = test: Angiogenesis activity in diabetic HLI C57BL/6 mouse model assessed as PDGF-BB protein expression at 100 mg/kg, im administered for 21 days followed by surgery by Western blot analysis; format: functional, organism-based; conditions: time 21.0 day
HUVEC [32] = test: Angiogenesis activity in human HUVEC cells assessed as increase of cell migration using conditioned medium of mouse C2C12 cells with silenced HIF-1alpha treated at 30 uM under hyperglycemic condition for 12 hrs followed by hypoxia for 24 hrs by crystal violet dye based transwell assay; format: functional; conditions: time 36.0 hrs

With OC[C@H]1O[C@@H](OCCc2ccc(O)cc2)[C@H](O)[C@@H](O)[C@@H]1O [SALIDROSIDE] the Activity (Mus musculus [1]) was “Active”, the Activity (Mus musculus [2]) was “Active” and the efflux ratio [3] was 1.09. The pKa [4] was 10.1, the fraction unbound [5] was 0.873 and the Activity (MOVAS-1 [6]) was “Active”. For the same molecule, the Activity (MOVAS-1 [7]) was “inactive”, the Activity (Mus musculus [8]) was “Active” and the Activity (HUVEC [9]) was “inactive”. The Activity (MOVAS-1 [10]) was “inactive”, the Activity (C2C12 [11]) was “Active” and the remaining at 12 h [12] was 99.4%. For the same molecule, the logP [13] was -2.42, the Activity (C2C12 [14]) was “Active” and the Activity (HUVEC [15]) was “Active”. For the same molecule, the Activity (HUVEC [16]) was “Active”, the Activity (C2C12 [17]) was “Active” and the remaining at 0.5 h [18] was 43.3%. The Activity (C2C12 [19]) was “Active”, the Activity (Mus musculus [20]) was “Active” and the Papp A→B [21] was 2.71 ×10⁻⁶ cm/s. The Activity (C2C12 [22]) was “Active”, the Papp B→A [23] was 2.95 ×10⁻⁶ cm/s and the remaining at 0.5 h [24] was 35.8%. For the same molecule, the Activity (MOVAS-1 [25]) was “Active”, the Activity (HUVEC [26]) was “inactive” and the Activity (C2C12 [27]) was “Active”. The Activity (MOVAS-1 [28]) was “Active”, the Activity (Mus musculus [29]) was “Active” and the solubility [30] was 472 mg/mL (≈ 1570 mM). For the same molecule, the Activity (Mus musculus [31]) was “Active” and the Activity (HUVEC [32]) was “Active”.
